COc1cc(CNC(=O)CCCCCCC(C)C)ccc1O
Settings	solubility (mole fraction)
in acetone, 299.49 K	0.193
in acetone, 300.47 K	0.203
in acetone, 302.34 K	0.224
in acetone, 303.46 K	0.236
in acetone, 304.58 K	0.249
in acetone, 305.69 K	0.256
in acetone, 306.75 K	0.269
in acetone, 308.78 K	0.287
in ethanol, 301.79 K	0.184
in ethanol, 303.35 K	0.196
in ethanol, 305.54 K	0.213
in ethanol, 307.86 K	0.233
in ethanol, 309.95 K	0.249
in ethanol, 311.23 K	0.258
in ethanol, 312.98 K	0.268
in ethanol, 314.44 K	0.278
in ethyl acetate, 302.07 K	0.307
in ethyl acetate, 304.12 K	0.33
in ethyl acetate, 305.29 K	0.342
in ethyl acetate, 306.48 K	0.354
in ethyl acetate, 307.69 K	0.369
in ethyl acetate, 308.81 K	0.379
in ethyl acetate, 310.65 K	0.397
in ethyl acetate, 312.79 K	0.415
in n-heptane, 298.43 K	0.000229
in n-heptane, 300.59 K	0.00026
in n-heptane, 302.85 K	0.000299
in n-heptane, 304.03 K	0.000318
in n-heptane, 305.69 K	0.000349
in n-heptane, 307.08 K	0.000378
in n-heptane, 308.84 K	0.000422
in n-heptane, 309.97 K	0.000451
in n-heptane, 311.04 K	0.00048
in n-heptane, 313.41 K	0.000549
in n-hexane, 296.14 K	0.000136
in n-hexane, 298.73 K	0.000159
in n-hexane, 300.87 K	0.000181
in n-hexane, 301.98 K	0.000196
in n-hexane, 303.09 K	0.00021
in n-hexane, 305.04 K	0.000238
in n-hexane, 307.13 K	0.000269
in n-hexane, 309.25 K	0.000309
in n-hexane, 310.68 K	0.00034
in n-hexane, 312.02 K	0.000374
in n-pentane, 297.26 K	0.000115
in n-pentane, 298.19 K	0.000122
in n-pentane, 299.27 K	0.00013
in n-pentane, 300.43 K	0.000142
in n-pentane, 301.54 K	0.000152
in water, 324.67 K	4.81e-05
in water, 325.03 K	5.24e-05
in water, 325.66 K	6.14e-05
in water, 326.29 K	7.19e-05
in water, 326.81 K	8.17e-05
in water, 327.37 K	9.26e-05
